Measured values from patent US12060400B2, “Peptides for use in immunotherapy against cancers” (Immatics Biotechnologies GmbH, priority 2018, dated 2024).

System: HLA-A*24
Assay: MHC binding assay: UV-ligand exchange with beta2m ELISA (peptide exchange yield)
Set-up: species or system human
Settings: Table 11, binding to HLA-A*24, UV-ligand exchange
Procedure, shortened: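 Peptide-MHC complexes generated by UV-induced exchange of a photocleavable ligand with the test peptide; exchange yield quantified by streptavidin-capture ELISA detecting β2m (HRP anti-β2m, TMB, A450). Samples diluted 100-fold, with refolded HLA-A*02:01/MLA-001 monomers (15-500 ng/ml) as standards.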

Substance | Peptide exchange (MHC class I binding score, peptide exchange yield)
35 (FSSTLVSLF; listed as Homo sapiens) [compound 35] | ++ (>20% = ++)
299 (FLPALYSLL; listed as Homo sapiens) [compound 299] | +++ (>50 = +++)
270 (GTGKLFWVF; listed as Homo sapiens) [compound 270] | + (>10% = +)
128 (AFQNVISSF; listed as Homo sapiens) [compound 128] | ++++ (>75% = ++++)
463 (VGGNVTSNF; listed as Homo sapiens) [compound 463] | +++ (>50 = +++)
323 (NYSPVTGKF; listed as Homo sapiens) [compound 323] | ++++ (>75% = ++++)
319 (ATATLHLIF; listed as Homo sapiens) [compound 319] | + (>10% = +)
250 (VYSDRQIYLL; listed as Homo sapiens) [compound 250] | ++++ (>75% = ++++)
206 (EVVHTVFLF; listed as Homo sapiens) [compound 206] | ++ (>20% = ++)
140 (IFQHFCEEI; listed as Homo sapiens) [compound 140] | ++ (>20% = ++)
150 (FIPVAWLIF; listed as Homo sapiens) [compound 150] | +++ (>50 = +++)
230 (RWLSKPSLL; listed as Homo sapiens) [compound 230] | ++++ (>75% = ++++)
10 (QYPEFSIEL; listed as Homo sapiens) [compound 10] | +++ (>50 = +++)
104 (GYGLTRVQPF; listed as Homo sapiens) [compound 104] | ++ (>20% = ++)
111 (IRPDYSFQF; listed as Homo sapiens) [compound 111] | ++ (>20% = ++)
30 (RQAYSVYAF; listed as Homo sapiens) [compound 30] | ++ (>20% = ++)
184 (VYVRPRVF; listed as Homo sapiens) [compound 184] | ++ (>20% = ++)
349 (IYMTTGVLL; listed as Homo sapiens) [compound 349] | ++++ (>75% = ++++)
69 (KWFDSHIPRW; listed as Homo sapiens) [compound 69] | ++++ (>75% = ++++)
82 (SYLENSASW; listed as Homo sapiens) [compound 82] | ++++ (>75% = ++++)
240 (RVHANPLLI; listed as Homo sapiens) [compound 240] | + (>10% = +)
136 (YLKSVQLF; listed as Homo sapiens) [compound 136] | ++ (>20% = ++)

Substance | Peptide exchange (MHC class I binding score, peptide exchange yield)
21 (LYMRFVNTHF; listed as Homo sapiens) [compound 21] | ++ (>20% = ++)
297 (LKSPRLFTF; listed as Homo sapiens) [compound 297] | ++ (>20% = ++)
367 (HWSHITHLF; listed as Homo sapiens) [compound 367] | ++++ (>75% = ++++)
85 (KYLSIPTVFF; listed as Homo sapiens) [compound 85] | ++++ (>75% = ++++)
126 (YSLLDPAQF; listed as Homo sapiens) [compound 126] | +++ (>50 = +++)
179 (MYNMVPFF; listed as Homo sapiens) [compound 179] | +++ (>50 = +++)
298 (TYETVMTFF; listed as Homo sapiens) [compound 298] | ++++ (>75% = ++++)
83 (VLQGEFFLF; listed as Homo sapiens) [compound 83] | ++++ (>75% = ++++)
284 (QFYSTLPNTI; listed as Homo sapiens) [compound 284] | + (>10% = +)
308 (AAFISVPLLI; listed as Homo sapiens) [compound 308] | ++++ (>75% = ++++)
236 (LHLYCLNTF; listed as Homo sapiens) [compound 236] | +++ (>50 = +++)
340 (FPPTPPLF; listed as Homo sapiens) [compound 340] | + (>10% = +)
137 (ALFAVCWAPF; listed as Homo sapiens) [compound 137] | ++ (>20% = ++)
296 (YQRPDLLLF; listed as Homo sapiens) [compound 296] | ++ (>20% = ++)
157 (SIYPHGVTF; listed as Homo sapiens) [compound 157] | ++ (>20% = ++)
312 (YLCMLYALF; listed as Homo sapiens) [compound 312] | ++ (>20% = ++)
379 (KLPTEWNVL; listed as Homo sapiens) [compound 379] | ++++ (>75% = ++++)
67 (SYVLQIVAI; listed as Homo sapiens) [compound 67] | +++ (>50 = +++)
123 (FFLQESPVF; listed as Homo sapiens) [compound 123] | ++++ (>75% = ++++)
269 (FSFSTSMNEF; listed as Homo sapiens) [compound 269] | ++ (>20% = ++)
311 (IQNAILHLF; listed as Homo sapiens) [compound 311] | ++++ (>75% = ++++)
43 (KYKDHFTEI; listed as Homo sapiens) [compound 43] | ++++ (>75% = ++++)

Next, values leading:

Peptide exchange (MHC class I binding score, peptide exchange yield) | Substance
++++ (>75% = ++++) | 322 (SFISPRYSWLF; listed as Homo sapiens) [compound 322]
+ (>10% = +) | 151 (RRLWAYVTI; listed as Homo sapiens) [compound 151]
++++ (>75% = ++++) | 180 (IYNKTKMAF; listed as Homo sapiens) [compound 180]
+ (>10% = +) | 166 (MMALWSLLHL; listed as Homo sapiens) [compound 166]
++ (>20% = ++) | 102 (VLASAHILQF; listed as Homo sapiens) [compound 102]
+ (>10% = +) | 219 (KVVSGFYYI; listed as Homo sapiens) [compound 219]
++ (>20% = ++) | 288 (MGKGSISFLF; listed as Homo sapiens) [compound 288]
++ (>20% = ++) | 130 (RPEKVFVF; listed as Homo sapiens) [compound 130]
++++ (>75% = ++++) | 17 (IYPEAIATL; listed as Homo sapiens) [compound 17]
++ (>20% = ++) | 20 (ELMAHPFLL; listed as Homo sapiens) [compound 20]
+++ (>50 = +++) | 162 (YYIGIVEEY; listed as Homo sapiens) [compound 162]
++++ (>75% = ++++) | 110 (VYSNPDLFW; listed as Homo sapiens) [compound 110]
+++ (>50 = +++) | 144 (LFDHGGTVFF; listed as Homo sapiens) [compound 144]
++++ (>75% = ++++) | 385 (GYFGNPQKF; listed as Homo sapiens) [compound 385]
+ (>10% = +) | 6 (IVTFMNKTLGTF; listed as Homo sapiens) [compound 6]
+++ (>50 = +++) | 190 (IYIIMQSCW; listed as Homo sapiens) [compound 190]
++++ (>75% = ++++) | 309 (AFISVPLLI; listed as Homo sapiens) [compound 309]
++++ (>75% = ++++) | 330 (DYIQMIPEL; listed as Homo sapiens) [compound 330]
++++ (>75% = ++++) | 142 (PYWWNANMVF; listed as Homo sapiens) [compound 142]
++ (>20% = ++) | 199 (MFQFEHIKW; listed as Homo sapiens) [compound 199]
+++ (>50 = +++) | 152 (MHPGVLAAFLF; listed as Homo sapiens) [compound 152]
++++ (>75% = ++++) | 328 (IYLVGGYSW; listed as Homo sapiens) [compound 328]
++++ (>75% = ++++) | 383 (PYFSPSASF; listed as Homo sapiens) [compound 383]
+++ (>50 = +++) | 209 (DIYVTGGHLF; listed as Homo sapiens) [compound 209]
++ (>20% = ++) | 266 (TQIITFESF; listed as Homo sapiens) [compound 266]
